The record followed here is patent US12673039B2, “Methods of inducing autophagy using coumarin derivatives and related compounds” (Buck Institute for Research on Aging, priority 2019, dated 2026).

For one test, the system named is TFEB. Kind of test: qRT-PCR of tfeb and its targets in N27 neuronal cells. Type of test: cell-based, rat. As for the experimental part:
FIG. 18, panels A-F: AIC106 (Autophagy Inducing Coumarin-106) induces transcription of TFEB and its targets in vitro in rat N27 neuronal cells and in vivo in C. elegans. Panel A) Relative fold change in TFEB promoter activity compared to DMSO-control was determined by quantifying luciferase activity in supernatants collected from rat N27 neuronal cells post-24 hour treatment with C1 (AIC106), D1 and D2. [n=3 independent experiments (mean±SEM), **p<0.01, by one-way ANOVA with Dunnett's multiple comparisons test]. Panel B) Chemical structure of AIC106 and its structural derivative D1 and D2. Panel C) Relative fold change in mRNA of tfeb and its targets compared to DMSO-control were quantified using qRT-PCR in N27 neuronal cells post-24 hour treatment with AIC106 [N=3 independent experiments (mean±SD). *p<0.05, **p<0.01 and ****p<0.0001, by two-way ANOVA with Sidak's multiple comparisons test]. Panel D) Changes in HLH-30 expression were measured by quantifying GFP intensity in an individual GFP-tagged HLH-30 strain (MAH235) post-24 hours treatment with AIC106 and DMSO-control. […] Panel E) HLH-30; GFP (MAH235) were monitored by fluorescence microscopy. Panel F) Relative fold change in mRNA of hlh-30 and its targets compared to DMSO-control were quantified using qRT-PCR in young adult wild type N2 worms post-24 hours treatment with AIC106. […]

Test [1] relates to TSC1+/− human neuronal SH-SY5Y cells. Nature of the test: TAU, phosphorylated-TAU, insoluble tau and viability in TSC1 mutant SH-SY5Y neuronal cells. Type of test: cell-based. As for the experimental part:
FIG. 8 A) Representative Western blot analysis of detergent-insoluble tau levels in control versus three independent TSC1-mutant SY5Y cell lines (A1, A3, A3A9) treated with 10 μM C1 (AIC106) versus vehicle. FIG. 8B) Quantitation of insoluble tau levels in control (Emty) versus mutant TSC1 lines treated with C1 (AIC106) versus vehicle (−). Values represent fold change versus vehicle-treated controls, *p<0.01.
FIG. 23, panels A-H: FXR modulation enhances HLH-30 expression in human neuronal SH-SY5Y cells. Panel A) Effects of AIC106 on human FXR activity was determined in a mammalian one-hybrid based kit assay by quantifying changes in the luciferase activity of FXR ligand (GW4064, GW) induced treatment. [N=3 independent experiments (mean±SD). ****p<0.0001, by one-way ANOVA with Tukey's multiple comparisons test]. Panel B) Protein expression of TFEB, cathepsin-D (CAT-D) and small heterodimer partner-1 (SHP-1) was determined by immunoblot in neuronal SH-SY5Y cells post-24 hours of treatment with AIC106 and DMSO-control. Panel C) AIC106 enhances autophagic flux in neuronal SH-SY5Y cells. Autophagic flux in DMSO-control and AIC106 treated neuronal cells was determined by quantifying levels of autophagosome specific LC3-II protein both in presence and absence of autophagy inhibitor bafliomycin A1 (Baf A, 10 nM). Panel D) Relative fold change in the band intensity of LC3-II protein, normalized to loading control actin. Values are relative to DMSO-control. [N=3 independent experiments (mean±SD). *p<0.05 and ****p<0.0001, by one-way ANOVA with Tukey's multiple comparisons test]. Panel E) Effects of AIC106 treatment for 72 hours on basal TAU and phosphorylated-TAU in differentiated human neuronal SH-SHY5Y and heterozygous TSC1(+/−) mutant SH-SY5Y neuronal cells were quantitated by immunoblotting following total protein extraction. Relative fold change in the band intensity compared to SH-SY5Y control treatment for (panel F) total TAU and (panel G) phosphorylated-TAU, normalized to loading control GAPDH. [N=3 independent experiments (mean±SD). *p<0.05 and **p<0.01, by one-way ANOVA with Sidak's multiple comparisons test]. Panel H) AIC106 treatment improves viability and health of differentiated SH-SY5Y-TSC1(+/−) neuronal cells. Images were taken post-96 hours after treatment of differentiated neuronal cells with AIC106.
The rat dopaminergic cell line 1RB3AN27 (N27) was grown in RPMI 1640 medium supplemented with 10% fetal calf serum (Invitrogen), 100 U/ml penicillin, and 100 μg/ml streptomycin. SH-SY5Y TSC1+/− lines were generated as described previously (Olney et al., 2017). […]

The mark [2] stands for this setting: TSC1+/− SH-SY5Y cells, 72 hours.

Turning to `O=c1oc2c3c4c(cc2c2c1CCC2)CCCN4CCC3` [C1, 2,3,6,7,10,11-Hexahydro-1H,5H-cyclopenta(3,4)(1)benzopyrano(6,7,8-ij)quinolizin-12(9H)-one], in the test on TFEB (24 hour treatment), the “TFEB mRNA levels” value is reported as “increased TFEB mRNA levels”. In addition, the “downstream TFEB target genes expression” value with TFEB (24 hour treatment (FIG. 18, panel C)) is “increased expression of downstream TFEB target genes”. Moreover, in test [1] (setting [2]), the TAU levels result is listed as “without significantly changing TAU levels” and the phosphorylated-TAU result is “decrease of phosphorylated-TAU”. Moreover, the insoluble tau levels result in test [1] (TSC1-mutant SY5Y cell lines, 10 μM C1 (FIG. 8)) is reported as “reduce levels of insoluble tau levels”. The “viability and general health of differentiated cells” value in test [1] (differentiated TSC1+/− SH-SY5Y cells, 96 hours) is reported as “prevented loss in viability”.
